{
  "source": "patent US20240092837A1",
  "about": "“Novel Peptide Carrier Compositions” (The Regents of the University of Colorado, A Body Corporate, priority 2021, published 2024)",
  "test_system": "ARPE-19 cells",
  "assay": "Intracellular uptake of FITC labeled TAT and PHHP 1 peptides in ARPE-19 cells (fluorometry)",
  "assay_type": "cell-based, human",
  "conditions": "10 and 5 μM",
  "description": "FIG. 9 are graphs of quantitation of in vitro cell uptake study of FITC labeled PHIP (P 1) and TAT peptides in ARPE-19 cells. Cells were grown to a 10,000 well density in 96 well fluorescent imaging plates with a transparent bottom. The ARPE-19 cells required an additional 48 hrs, to reach this cell density. Cells were incubated with 200 μl of 10 and 5 μM/ml FITC labeled PHHP (P 1) and TAT peptides and uptake was continued for 1 hour at 37° C. Following uptake; cells were washed three times with acidic PBS (pH 5.0) and normal PBS (pH 7.4) at 37° C. Cells were lysed using 0.1 M NaOH and quantified using a fluorometry method. Panel A illustrates uptake of peptides by ARPE-19 cells and absolute amount, and panel B illustrates the percentage uptake of peptides at different concentrations.\nThe cell uptake study of FITC labeled PHHP peptides in an ARPE-19 cell line was studied using fluorometry. ARPE —19 cells were grown in a DMEM/F12 medium. A cell density of 10,000 cells was plated into a 96 well plate for each cell lines, 48 hours before the start of the uptake study. […] All the samples were brought to room temperature and fluorescence spectra were recorded at an excitation wavelength of 493 nm and emission wavelength of 520 nm. The percentage uptake and absolute uptake were determined for each peptide at different concentrations and plotted as a bar graph for comparative analyses in FIG. 3.\nIntracellular uptake of TAT and PHHP 1 peptides in ARPE-19 cells. […] All the samples were then brought to room temperature and fluorescence intensities were recorded at an excitation wavelength of 493 nm and emission wavelength of 520 nm.\nPercentage uptake and statistical analyses at different concentrations were compared. […] The percentage uptake of the PHHP 1 peptide was determined to be ˜15-17, whereas ˜3-4% for TAT peptide. […] Furthermore, these proteins in their PHHP 1 tagged and un-tagged forms were evaluated for intracellular uptake properties in ARPE-19, A549, and hCET cells lines and for transcellular migration behavior across bovine and rabbit eyes cornea following topical dosing (FIG. 9).",
  "data": [
    {"substance": "PHHP 1: positive, helical, hydrophobic peptide variant, sequence WWFWIWFWWGPGRRKRRKRRR [SEQ ID 1] (Sequence is synthesized)", "values": [
      {"measurement": "fold improvement in the uptake relative to the TAT peptide", "setting": "1 hour uptake at 37° C.", "value": "4-7 fold"},
      {"measurement": "uptake behavior (percentage uptake versus concentration)", "setting": "FITC labeled peptide, 1 hour", "value": "concentration dependence"},
      {"measurement": "percentage uptake", "setting": "FITC labeled peptide, 1 hour uptake at 37° C.", "value": "15-17%"}
    ]}
  ]
}
